Results: the NIST ThermoML archive (doi:10.1016/j.fluid.2014.09.031)
± gives the expanded uncertainty stated by the source.

Experiment: xn = mol fraction of the nth substance listed
Details: 298.15 K, 101 kPa, Liquid, Vibrating tube method

CN1CCCC1=O [N-methylpyrrolidone] + CCCC[NH3+].O=[N+]([O-])[O-]
Details | mass density [kg/m3]
x2 = 0 | 1028.25 ± 0.13

CC[NH3+].O=[N+]([O-])[O-] [ethylammonium nitrate] + CN1CCCC1=O
Details | mass density [kg/m3]
x1 = 0.049 | 1040.83 ± 0.16
x1 = 0.138 | 1059.94 ± 0.22
x1 = 0.166 | 1065.8 ± 0.25
x1 = 0.223 | 1076.59 ± 0.32
x1 = 0.242 | 1080.27 ± 0.35
x1 = 0.292 | 1089.23 ± 0.43
x1 = 0.347 | 1098.75 ± 0.52
x1 = 0.413 | 1109.61 ± 0.66
x1 = 0.457 | 1116.43 ± 0.75
x1 = 0.48 | 1119.62 ± 0.81
x1 = 0.54 | 1129.36 ± 0.96
x1 = 0.592 | 1137.95 ± 1.1
x1 = 0.63 | 1143.72 ± 1.2
x1 = 0.684 | 1153.22 ± 1.4
x1 = 0.763 | 1167.68 ± 1.7
x1 = 0.83 | 1179.62 ± 2
x1 = 0.915 | 1195.54 ± 2.4
x1 = 0.981 | 1207.67 ± 2.7
x1 = 1 | 1210.76 ± 2.8

CCCC[NH3+].O=[N+]([O-])[O-] [n-butylammonium nitrate] + CN1CCCC1=O
Details | mass density [kg/m3]
x1 = 0.048 | 1036.44 ± 0.15
x1 = 0.108 | 1044.94 ± 0.19
x1 = 0.163 | 1051.72 ± 0.24
x1 = 0.267 | 1062.31 ± 0.36
x1 = 0.365 | 1069.91 ± 0.51
x1 = 0.439 | 1074.93 ± 0.65
x1 = 0.538 | 1080.43 ± 0.86
x1 = 0.67 | 1088.06 ± 1.2
x1 = 0.843 | 1097.2 ± 1.7
x1 = 1 | 1105.49 ± 2.3

CCC[NH3+].O=[N+]([O-])[O-] [propylammonium nitrate] + CN1CCCC1=O
Details | mass density [kg/m3]
x1 = 0.046 | 1038.38 ± 0.15
x1 = 0.167 | 1059.42 ± 0.24
x1 = 0.202 | 1064.53 ± 0.29
x1 = 0.263 | 1073.3 ± 0.37
x1 = 0.329 | 1081.53 ± 0.47
x1 = 0.406 | 1090.6 ± 0.61
x1 = 0.461 | 1096.52 ± 0.73
x1 = 0.551 | 1105.72 ± 0.94
x1 = 0.582 | 1108.68 ± 1
x1 = 0.628 | 1113.18 ± 1.1
x1 = 0.661 | 1116.42 ± 1.2
x1 = 0.721 | 1122.67 ± 1.4
x1 = 0.781 | 1128.74 ± 1.6
x1 = 0.808 | 1130.96 ± 1.7
x1 = 0.862 | 1136.73 ± 1.9

CN1CCCC1=O [N-methylpyrrolidone] + CC[NH3+].O=[N+]([O-])[O-]
Details | mass density [kg/m3]
x2 = 0 | 1028.25 ± 0.13

CN1CCCC1=O [N-methylpyrrolidone] + CCC[NH3+].O=[N+]([O-])[O-]
Details | mass density [kg/m3]
x2 = 0 | 1028.25 ± 0.13
